For nine molecules, GI50 and TGI results are on record in PubChem BioAssay (NCI).

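1) Cells in 96-well plates. 2) Compound, 48 h, 5 concentrations. 3) Linear interpolation between surrounding doses. 4) Unreached endpoint = highest concentration. Abbreviation: GI50, concentration required for 50% inhibition of growth. TGI marks complete inhibition of growth.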

Some test systems named below: 786-0 renal; A498 renal; COLO 205 colon; MALME-3M melanoma; MDA-MB-435; NCI-H522 lung; SF-295 CNS; SK-MEL-28 melanoma; SNB-19 CNS; CCRF-CEM leukemia.
Assay in all cases: DTP human tumour cell line panel, 48 h

Consider `Cc1cc(C(=O)N2CCN(C)CC2)c2c(=O)n(-c3ccccc3)c(=O)n(CC(O)CN3CCN(c4ncccn4)CC3)c2n1` (stereo unspecified), for which the GI50 with 786-0 renal, in the experiment on A498 renal, with COLO 205 colon, in the experiment with MALME-3M melanoma, with MDA-MB-435 and with NCI-H522 lung was more than 100 µM in each case. The GI50 in the experiment with SF-295 CNS, in the experiment on SK-MEL-28 melanoma and in the experiment on SNB-19 CNS was more than 100 µM in each case. The TGI with 786-0 renal, in the experiment on A498 renal, in the experiment with COLO 205 colon, in the experiment on MALME-3M melanoma, in the experiment on MDA-MB-435 and in the experiment on NCI-H522 lung was more than 100 µM each time. Moreover, the concentration for total growth inhibition (TGI) with SF-295 CNS, with SK-MEL-28 melanoma and in the experiment with SNB-19 CNS was more than 100 µM in each case.
As to `S=C(Nc1ccc(Cl)cc1)SC1CCCCC1`, the TGI in the experiment with 786-0 renal is more than 100 µM; in the experiment with CCRF-CEM leukemia, more than 100 µM; in the experiment with COLO 205 colon, more than 100 µM; with MALME-3M melanoma, 85.9 µM; with MDA-MB-435, more than 100 µM; in the experiment with NCI-H522 lung it was 44.6 µM. Besides, the concentration for total growth inhibition (TGI) in the experiment with SF-295 CNS was 70.5 µM; in the experiment on SK-MEL-28 melanoma, 49.6 µM; in the experiment with SNB-19 CNS, 53.6 µM.
For `COc1cccc(C(C#N)NC23CC4CC(CC(C4)C2)C3)c1` (stereo unspecified), the concentration for total growth inhibition (TGI) in the experiment on 786-0 renal, with CCRF-CEM leukemia, in the experiment on COLO 205 colon, in the experiment on MALME-3M melanoma, in the experiment on MDA-MB-435 and in the experiment on NCI-H522 lung was more than 100 µM in each case. For the same molecule, the concentration for total growth inhibition (TGI) in the experiment on SF-295 CNS, in the experiment with SK-MEL-28 melanoma and in the experiment on SNB-19 CNS was more than 100 µM each time.
`NC(Cc1ccc(O)cc1)C(=O)N/N=C/c1ccc(N(CCCl)CCCl)cc1` (stereo unspecified): the GI50 with 786-0 renal was 5.98 µM; with A498 renal, 9.78 µM; in the experiment with CCRF-CEM leukemia it was 0.231 µM; in the experiment on COLO 205 colon it was 44.5 µM; with MDA-MB-435, 12.2 µM; in the experiment with NCI-H522 lung, 25.1 µM. Besides, the GI50 in the experiment with SF-295 CNS is 1.37 µM; in the experiment on SK-MEL-28 melanoma it was 58.7 µM; in the experiment on SNB-19 CNS, 29.9 µM. Also, the total growth inhibition concentration (TGI) in the experiment with 786-0 renal is 75.9 µM; in the experiment with A498 renal it was 59.5 µM; with CCRF-CEM leukemia it was more than 100 µM; in the experiment on COLO 205 colon, more than 100 µM; with MDA-MB-435 it was 65.4 µM; in the experiment on NCI-H522 lung, more than 100 µM. For the same molecule, the total growth inhibition concentration (TGI) in the experiment with SF-295 CNS was 6.35 µM; in the experiment on SK-MEL-28 melanoma, more than 100 µM; with SNB-19 CNS, more than 100 µM.
As for `CS(=O)/C(C#N)=C\C=C\c1cccc(Cl)c1` (stereo unspecified), the GI50 is 3.21 µM with 786-0 renal; 12.4 µM in the experiment on A498 renal; 2.34 µM in the experiment on CCRF-CEM leukemia; 2.25 µM in the experiment with COLO 205 colon; 2.34 µM in the experiment with MDA-MB-435; 1.96 µM with NCI-H522 lung. The GI50 is 3.05 µM in the experiment with SF-295 CNS, 2.68 µM in the experiment on SK-MEL-28 melanoma and 1.81 µM with SNB-19 CNS. The total growth inhibition concentration (TGI) with 786-0 renal was 12.2 µM; in the experiment on A498 renal, 25 µM; in the experiment on CCRF-CEM leukemia, 18.7 µM; in the experiment with COLO 205 colon, 4.44 µM; with MDA-MB-435, 10.6 µM; in the experiment with NCI-H522 lung, 5.65 µM. Further, the results for the total growth inhibition concentration (TGI) in the experiment on SF-295 CNS, with SK-MEL-28 melanoma and in the experiment on SNB-19 CNS were 10.7 µM, 9.78 µM and 5.54 µM, respectively.
As for `O=C(N/N=C/c1ccncc1)c1ccc(C(F)(F)F)nc1Nc1cccc(C(F)(F)F)c1`, the GI50 is 1.29 µM with 786-0 renal; 2.91 µM with A498 renal; 2.57 µM in the experiment with COLO 205 colon; 2 µM with MALME-3M melanoma; 3.66 µM in the experiment on MDA-MB-435; 2.7 µM with NCI-H522 lung. Besides, the GI50 in the experiment with SF-295 CNS is 1.37 µM; with SK-MEL-28 melanoma, 3.48 µM; with SNB-19 CNS, 2.67 µM. Further, the concentration for total growth inhibition (TGI) in the experiment on 786-0 renal worked out at 7.55 µM; in the experiment with A498 renal it was 10 µM; in the experiment with COLO 205 colon, 7.51 µM; in the experiment on MALME-3M melanoma it was 6.99 µM; in the experiment with MDA-MB-435, 13.7 µM; with NCI-H522 lung, 10.7 µM. For the same molecule, the total growth inhibition concentration (TGI) in the experiment with SF-295 CNS is 3.91 µM; in the experiment with SK-MEL-28 melanoma, 14.2 µM; with SNB-19 CNS it was 11.8 µM.
Regarding `O=C1c2ccccc2-c2c1c1c(O)cccc1n2CCCc1ccccc1`, the GI50 in the experiment on 786-0 renal was 21 µM; in the experiment with A498 renal it was 17.3 µM; in the experiment on CCRF-CEM leukemia it was 24.1 µM; in the experiment with COLO 205 colon it was 17.8 µM; in the experiment with MDA-MB-435, 16.7 µM; with NCI-H522 lung it was 3.85 µM. Besides, the GI50 is 7.33 µM with SF-295 CNS, more than 100 µM in the experiment with SK-MEL-28 melanoma and 85.2 µM with SNB-19 CNS. The total growth inhibition concentration (TGI) was 99.3 µM in the experiment with 786-0 renal; 43.2 µM in the experiment with A498 renal; more than 100 µM with CCRF-CEM leukemia; more than 100 µM in the experiment on COLO 205 colon; more than 100 µM in the experiment on MDA-MB-435; 38.5 µM in the experiment with NCI-H522 lung. The TGI in the experiment on SF-295 CNS, in the experiment on SK-MEL-28 melanoma and in the experiment on SNB-19 CNS was more than 100 µM each time.
In the case of `Cc1cn(C2CC(N=[N+]=[N-])C(CO)O2)c(=O)[nH]c1=O` (stereo unspecified), the GI50 in the experiment on 786-0 renal was more than 1000 µM; in the experiment with COLO 205 colon it was 433 µM; with MALME-3M melanoma, more than 1000 µM; with NCI-H522 lung, more than 1000 µM. Also, the TGI with 786-0 renal, in the experiment on CCRF-CEM leukemia, with COLO 205 colon, in the experiment on MALME-3M melanoma, in the experiment with MDA-MB-435 and in the experiment with NCI-H522 lung was more than 1000 µM throughout.
With `CC(=O)NC1CCCN(O)C(=O)/C=C(/C)CCOC(=O)C(NC(C)=O)CCCN(O)C(=O)/C=C(/C)CCOC(=O)C(NC(C)=O)CCCN(O)C(=O)/C=C(/C)CCOC1=O.[Fe]` (stereo unspecified), the GI50 with 786-0 renal, in the experiment with A498 renal, in the experiment on CCRF-CEM leukemia, with COLO 205 colon, in the experiment with MDA-MB-435 and in the experiment on NCI-H522 lung was more than 100 µM each time. Further, the GI50 in the experiment on SF-295 CNS, in the experiment with SK-MEL-28 melanoma and in the experiment on SNB-19 CNS was more than 100 µM each time. Further, the TGI in the experiment with 786-0 renal, in the experiment on A498 renal, in the experiment with CCRF-CEM leukemia, in the experiment on COLO 205 colon, with MDA-MB-435 and in the experiment on NCI-H522 lung was more than 100 µM throughout. Moreover, the total growth inhibition concentration (TGI) in the experiment on SF-295 CNS, in the experiment on SK-MEL-28 melanoma and with SNB-19 CNS was more than 100 µM throughout.

Broadly, the GI50 is the concentration giving 50% growth inhibition. Broadly, the TGI is the concentration at which net growth stops. A low value points to more potent growth arrest.
